From patent US7741327B2 (Hoffmann-La Roche Inc., priority 2008, dated 2010) come the findings set out here.

This assay deals with T1, Recombinant human liver GK1 (GST-GK) (Homo sapiens, UniProt P35557).
T1 construct: made in house; host or cells: E. coli
T1 sequence (P35557 1-466 isoform P35557-2): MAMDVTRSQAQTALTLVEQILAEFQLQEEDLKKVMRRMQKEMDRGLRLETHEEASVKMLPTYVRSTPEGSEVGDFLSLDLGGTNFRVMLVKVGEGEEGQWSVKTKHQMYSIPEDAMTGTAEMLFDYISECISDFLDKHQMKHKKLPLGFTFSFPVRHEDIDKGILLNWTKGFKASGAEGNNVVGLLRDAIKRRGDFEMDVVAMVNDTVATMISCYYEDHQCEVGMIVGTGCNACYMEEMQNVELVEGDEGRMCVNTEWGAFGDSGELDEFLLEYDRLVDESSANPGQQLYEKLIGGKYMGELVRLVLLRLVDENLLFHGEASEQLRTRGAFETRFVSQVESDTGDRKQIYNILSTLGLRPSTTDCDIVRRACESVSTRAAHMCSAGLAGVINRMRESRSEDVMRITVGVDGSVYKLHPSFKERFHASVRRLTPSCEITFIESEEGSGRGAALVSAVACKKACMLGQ
The experiment in a line: In vitro glucokinase activity (G6PDH-coupled NADH assay). In kind it is biochemical. The note with it: 30° C., 5 mM D-glucose, 10% DMSO. Summed up:
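Activation measured as the rate of OD340 rise from G6PDH-coupled NADH production, relative to 10% DMSO control, reported as SC1.5 (concentration for 50% activity increase). Conditions: 30° C, pH 7.1 Hepes, 5 mM glucose, 1 mM ATP, purified recombinant GST-human GK1, compound preincubated 10 min before enzyme addition.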

Take `CC(C)C[C@@H](C(=O)Nc1ccn(C)n1)N1CC(Oc2cccc(CC(C)(C)O)c2)=CC1=O` [Example 235, (S)-2-{4-[3-(2-Hydroxy-2-methyl-propyl)-phenoxy]-2-oxo-2,5-dihydro-pyrrol-1-yl}-4-methyl-pentanoic acid (1-methyl-1H-pyrazol-3-yl)-amide]: the “SC1.5 (concentration of activator that produced a 50% increase in the activity of GK)” value came out at 2.061 µM.

Consider `CC(C)C[C@@H](C(=O)Nc1ccn(CC(C)(C)O)n1)N1CC(Oc2cccc(CC(C)(C)O)c2)=CC1=O` [Example 236, (S)-2-{4-[3-(2-Hydroxy-2-methyl-propyl)-phenoxy]-2-oxo-2,5-dihydro-pyrrol-1-yl}-4-methyl-pentanoic acid [1-(2-hydroxy-2-methyl-propyl)-1H-pyrazol-3-yl]-amide], for which the “SC1.5 (concentration of activator that produced a 50% increase in the activity of GK)” value was 0.823 µM.

For `CC(C)C[C@@H](C(=O)Nc1ccn(C[C@@H]2COC(C)(C)O2)n1)N1CC(Oc2cccc(CC(C)(C)O)c2)=CC1=O` [Example 237, (S)-2-{4-[3-(2-Hydroxy-2-methyl-propyl)-phenoxy]-2-oxo-2,5-dihydro-pyrrol-1-yl}-4-methyl-pentanoic acid [1-((R)-2,2-dimethyl-[1,3]dioxolan-4-ylmethyl)-1H-pyrazol-3-yl]-amide], the “SC1.5 (concentration of activator that produced a 50% increase in the activity of GK)” value turned out to be 1.969 µM.

`CC(C)C[C@@H](C(=O)Nc1ccn(C[C@@H](O)CO)n1)N1CC(Oc2cccc(CC(C)(C)O)c2)=CC1=O` [Example 238, (S)-2-{4-[3-(2-Hydroxy-2-methyl-propyl)-phenoxy]-2-oxo-2,5-dihydro-pyrrol-1-yl}-4-methyl-pentanoic acid [1-((R)-2,3-dihydroxy-propyl)-1H-pyrazol-3-yl]-amide]: the “SC1.5 (concentration of activator that produced a 50% increase in the activity of GK)” value was 1.125 µM.

For `CC(C)C[C@@H](C(=O)Nc1ccn(C[C@@H](O)CO)n1)N1CC(Oc2cccc3c2cnn3C)=CC1=O` [Example 240, (S)-4-Methyl-2-[4-(1-methyl-1H-indazol-4-yloxy)-2-oxo-2,5-dihydro-pyrrol-1-yl]-pentanoic acid [1-((R)-2,3-dihydroxy-propyl)-1H-pyrazol-3-yl]-amide], the “SC1.5 (concentration of activator that produced a 50% increase in the activity of GK)” value amounted to 2.636 µM.

Regarding `CC(C)C[C@@H](C(=O)Nc1ccn(CC(C)(C)O)n1)N1CC(Oc2cccc(O)c2N)=CC1=O` [Example 241, (S)-2-[4-(2-Amino-3-hydroxy-phenoxy)-2-oxo-2,5-dihydro-pyrrol-1-yl]-4-methyl-pentanoic acid [1-(2-hydroxy-2-methyl-propyl)-1H-pyrazol-3-yl]-amide], the “SC1.5 (concentration of activator that produced a 50% increase in the activity of GK)” value stood at 2.458 µM.

As to `CC(C)C[C@@H](C(=O)Nc1ccn(CC(C)(C)O)n1)N1CC(Oc2cccc3ocnc23)=CC1=O` [Example 242, (S)-2-[4-(Benzooxazol-4-yloxy)-2-oxo-2,5-dihydro-pyrrol-1-yl]-4-methyl-pentanoic acid [1-(2-hydroxy-2-methyl-propyl)-1H-pyrazol-3-yl]-amide], the “SC1.5 (concentration of activator that produced a 50% increase in the activity of GK)” value came to 3.036 µM.

For the compound `Cc1nc2c(OC3=CC(=O)N([C@@H](CC(C)C)C(=O)Nc4ccn(CC(C)(C)O)n4)C3)cccc2o1` [Example 243, (S)-4-Methyl-2-[4-(2-methyl-benzooxazol-4-yloxy)-2-oxo-2,5-dihydro-pyrrol-1-yl]-pentanoic acid [1-(2-hydroxy-2-methyl-propyl)-1H-pyrazol-3-yl]-amide], the “SC1.5 (concentration of activator that produced a 50% increase in the activity of GK)” value stood at 7.56 µM.

For `CC(C)C[C@@H](C(=O)Nc1cnccn1)N1CC(Oc2ccc(C[C@H](O)CO)cc2)=CC1=O` [Example 244, (S)-2-{4-[4-((S)-2,3-Dihydroxy-propyl)-phenoxy]-2-oxo-2,5-dihydro-pyrrol-1-yl}-4-methyl-pentanoic acid pyrazin-2-ylamide], the “SC1.5 (concentration of activator that produced a 50% increase in the activity of GK)” value was found to be 0.158 µM.

As to `CC(C)C[C@@H](C(=O)Nc1cnccn1)N1CC(Oc2ccc(CC(C)(C)O)cc2)=CC1=O` [Example 245, (S)-2-{4-[4-(2-Hydroxy-2-methyl-propyl)-phenoxy]-2-oxo-2,5-dihydro-pyrrol-1-yl}-4-methyl-pentanoic acid pyrazin-2-ylamide], the “SC1.5 (concentration of activator that produced a 50% increase in the activity of GK)” value stood at 3.668 µM.

Take `CC(C)C[C@@H](C(=O)Nc1cnccn1)N1CC(Oc2cccc(CC(C)(C)O)c2)=CC1=O` [Example 246, (S)-2-{4-[3-(2-Hydroxy-2-methyl-propyl)-phenoxy]-2-oxo-2,5-dihydro-pyrrol-1-yl}-4-methyl-pentanoic acid pyrazin-2-ylamide]: the “SC1.5 (concentration of activator that produced a 50% increase in the activity of GK)” value amounted to 1.708 µM.

On to `CC(C)C[C@@H](C(=O)Nc1cnccn1)N1CC(Oc2cccc(C(C)(C)O)c2F)=CC1=O` [Example 247, (S)-2-{4-[2-Fluoro-3-(1-hydroxy-1-methyl-ethyl)-phenoxy]-2-oxo-2,5-dihydro-pyrrol-1-yl}-4-methyl-pentanoic acid pyrazin-2-ylamide], for which the “SC1.5 (concentration of activator that produced a 50% increase in the activity of GK)” value was determined as 2.59 µM.

On to `CC[C@@H](C)CC(C(=O)Nc1ccn(C[C@@H]2COC(C)(C)O2)n1)N1CC(Oc2ccccc2Cl)=CC1=O` (stereo partly drawn) [Example 252, (R)-2-[4-(2-Chloro-phenoxy)-2-oxo-2,5-dihydro-pyrrol-1-yl]-4-methyl-hexanoic acid [1-((R)-2,2-dimethyl-[1,3]dioxolan-4-ylmethyl)-1H-pyrazol-3-yl]-amide], for which the “SC1.5 (concentration of activator that produced a 50% increase in the activity of GK)” value was 0.197 µM.

For `CC[C@@H](C)CC(C(=O)Nc1ccn(C[C@@H](O)CO)n1)N1CC(Oc2ccccc2Cl)=CC1=O` (stereo partly drawn) [Example 253, (R)-2-[4-(2-Chloro-phenoxy)-2-oxo-2,5-dihydro-pyrrol-1-yl]-4-methyl-hexanoic acid [1-((R)-2,3-dihydroxy-propyl)-1H-pyrazol-3-yl]-amide], the “SC1.5 (concentration of activator that produced a 50% increase in the activity of GK)” value stood at 0.113 µM.

Consider `CC[C@@H](C)C[C@@H](C(=O)Nc1ccn(C[C@@H](O)CO)n1)N1CC(Oc2ccccc2Cl)=CC1=O` [Example 255, (2S,4R)-2-[4-(2-Chloro-phenoxy)-2-oxo-2,5-dihydro-pyrrol-1-yl]-4-methyl-hexanoic acid [1-((R)-2,3-dihydroxy-propyl)-1H-pyrazol-3-yl]-amide], for which the “SC1.5 (concentration of activator that produced a 50% increase in the activity of GK)” value was determined as 0.048 µM.

As to `CCOc1ccc(F)c(OC2=CC(=O)N(C(CC3CCOCC3)C(=O)Nc3ccn(CC(C)(C)O)n3)C2)c1F` (centres unmarked) [Example 256, 2-[4-(3-Ethoxy-2,6-difluoro-phenoxy)-2-oxo-2,5-dihydro-pyrrol-1-yl]-N-[1-(2-hydroxy-2-methyl-propyl)-1H-pyrazol-3-yl]-3-(tetrahydro-pyran-4-yl)-propionamide], the “SC1.5 (concentration of activator that produced a 50% increase in the activity of GK)” value turned out to be 0.044 µM.

Take `CCOc1cccc(OC2=CC(=O)N([C@@H](C[C@H](C)OCC)C(=O)Nc3ccn(CC(C)(C)O)n3)C2)c1F` [Example 259, (2S,4S)-4-Ethoxy-2-[4-(3-ethoxy-2-fluoro-phenoxy)-2-oxo-2,5-dihydro-pyrrol-1-yl]-pentanoic acid [1-(2-hydroxy-2-methyl-propyl)-1H-pyrazol-3-yl]-amide]: the “SC1.5 (concentration of activator that produced a 50% increase in the activity of GK)” value came to 0.984 µM.
